Measured values published in PubChem BioAssay (NCI).
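All cell lines were grown in 96-well plates and treated with compound for 48 hours. GI50: concentration for 50% inhibition of growth. TGI: concentration producing complete growth inhibition.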

What was measured:
Experiment in all cases: inhibition of tumour cell growth, NCI panel, 48 h
SR leukemia = tested on: SR leukemia
MALME-3M melanoma = tested on: MALME-3M melanoma
HT29 colon = tested on: HT29 colon
SW-620 colon = tested on: SW-620 colon
OVCAR-8 ovarian = tested on: OVCAR-8 ovarian
HCT-15 colon = tested on: HCT-15 colon
NCI-H460 lung = tested on: NCI-H460 lung
TK-10 renal = tested on: TK-10 renal
ACHN renal = tested on: ACHN renal
MDA-MB-231 breast = tested on: MDA-MB-231 breast

## COc1ccc(-c2cc(-c3cc4cc(Br)ccc4nc3Cl)c(C#N)c(N)n2)cc1
SR leukemia
  TGI: > 12.5 µM
MALME-3M melanoma
  TGI: > 12.5 µM
HT29 colon
  TGI: > 12.5 µM
SW-620 colon
  TGI: > 12.5 µM
OVCAR-8 ovarian
  TGI: > 12.5 µM
HCT-15 colon
  TGI: > 12.5 µM

## Cc1ccc2c(c1C)C(=O)/C(=C/c1ccccc1C(=O)O)C2
SR leukemia
  TGI: > 100 µM
MALME-3M melanoma
  TGI: > 100 µM
NCI-H460 lung
  TGI: > 100 µM
HT29 colon
  TGI: > 100 µM
SW-620 colon
  TGI: > 100 µM
OVCAR-8 ovarian
  TGI: > 100 µM
TK-10 renal
  TGI: > 100 µM
ACHN renal
  TGI: > 100 µM
HCT-15 colon
  TGI: > 100 µM

## CC1CC/C(=C\c2ccc(Cl)cc2)C2OC(N)=C(C#N)C(c3ccc(Cl)cc3)=C12 (configuration not stated)
MDA-MB-231 breast
  TGI: 23.7 µM
MALME-3M melanoma
  TGI: 28.7 µM
HT29 colon
  TGI: 20.7 µM
SW-620 colon
  TGI: 89 µM
OVCAR-8 ovarian
  TGI: 27.4 µM
TK-10 renal
  TGI: 41.3 µM
ACHN renal
  TGI: 29.9 µM
HCT-15 colon
  TGI: 23.1 µM

## COc1ccccc1NC(=O)CC(=O)N1N=C(C)C(N=Nc2ccc(C(=O)O)cc2)C1=O (configuration not stated)
SR leukemia
  TGI: > 100 µM
MDA-MB-231 breast
  TGI: > 100 µM
MALME-3M melanoma
  TGI: > 100 µM
HT29 colon
  TGI: > 100 µM
SW-620 colon
  TGI: > 100 µM
OVCAR-8 ovarian
  TGI: > 100 µM
TK-10 renal
  TGI: > 100 µM
ACHN renal
  TGI: > 100 µM
HCT-15 colon
  TGI: > 100 µM

## O=c1c2cc(I)ccc2nc(-c2cccs2)n1-c1ccc(O)cc1
SR leukemia
  TGI: > 100 µM
MALME-3M melanoma
  TGI: 20.6 µM
NCI-H460 lung
  TGI: 52.6 µM
HT29 colon
  TGI: 27.1 µM
SW-620 colon
  TGI: 69.6 µM
OVCAR-8 ovarian
  TGI: 29.4 µM
TK-10 renal
  TGI: 23.3 µM
ACHN renal
  TGI: 22.5 µM
HCT-15 colon
  TGI: 26.1 µM

## NCCCN(CCCN)CCN(CCN(CCCN)CCCN)CCN(CCCN)CCCN
SR leukemia
  TGI: > 100 µM
MDA-MB-231 breast
  TGI: > 100 µM
NCI-H460 lung
  TGI: > 100 µM
HT29 colon
  TGI: > 100 µM
SW-620 colon
  TGI: > 100 µM
OVCAR-8 ovarian
  TGI: > 100 µM
TK-10 renal
  TGI: > 100 µM
ACHN renal
  TGI: > 100 µM
HCT-15 colon
  TGI: > 100 µM

## CC(=O)Oc1c2oc3ccc(Cl)cc3c(=O)c2c(O)c2ccsc12
MDA-MB-231 breast
  TGI: > 100 µM
MALME-3M melanoma
  TGI: > 100 µM
NCI-H460 lung
  TGI: > 100 µM
HT29 colon
  TGI: > 100 µM
SW-620 colon
  TGI: > 100 µM
OVCAR-8 ovarian
  TGI: > 100 µM
TK-10 renal
  TGI: > 100 µM
ACHN renal
  TGI: > 100 µM
HCT-15 colon
  TGI: > 100 µM

## NNC(=O)Cn1c2ccc(Br)cc2c2nc3ccccc3nc21
SR leukemia
  TGI: > 100 µM
MDA-MB-231 breast
  TGI: > 100 µM
HT29 colon
  TGI: > 100 µM
SW-620 colon
  TGI: > 100 µM
OVCAR-8 ovarian
  TGI: > 100 µM
TK-10 renal
  TGI: > 100 µM
ACHN renal
  TGI: > 100 µM

## COC(=O)c1c(OC(C)=O)ccc2c1c1c(n2C)C(=O)c2ccccc2C1=O
SR leukemia
  TGI: > 100 µM
MDA-MB-231 breast
  TGI: > 100 µM
MALME-3M melanoma
  TGI: 55.3 µM
NCI-H460 lung
  TGI: > 100 µM
HT29 colon
  TGI: > 100 µM
OVCAR-8 ovarian
  TGI: > 100 µM
TK-10 renal
  TGI: 88.1 µM
ACHN renal
  TGI: 51.5 µM
HCT-15 colon
  TGI: > 100 µM

## COc1ccc(-n2c(=O)n(C)c(=O)n2-c2ccc(OC)cc2)cc1
SR leukemia
  TGI: > 100 µM
MDA-MB-231 breast
  TGI: > 100 µM
NCI-H460 lung
  TGI: > 100 µM
HT29 colon
  TGI: > 100 µM
SW-620 colon
  TGI: > 100 µM
OVCAR-8 ovarian
  TGI: > 100 µM
TK-10 renal
  TGI: > 100 µM
ACHN renal
  TGI: > 100 µM
HCT-15 colon
  TGI: > 100 µM

## COc1ccc2nc3cc([N+](=O)[O-])ccc3c(Nc3ccc(S(=O)(=O)NC(C)=O)cc3)c2c1
SR leukemia
  TGI: 75.8 µM
MDA-MB-231 breast
  TGI: > 100 µM
MALME-3M melanoma
  TGI: > 100 µM
NCI-H460 lung
  TGI: > 100 µM
HT29 colon
  TGI: > 100 µM
SW-620 colon
  TGI: > 100 µM
TK-10 renal
  TGI: > 100 µM
ACHN renal
  TGI: > 100 µM
HCT-15 colon
  TGI: > 100 µM

## O=C1C(=O)c2ccccc2C(O)=C1CCCc1ccc(Oc2ccccc2)cc1
SR leukemia
  TGI: > 100 µM
MALME-3M melanoma
  TGI: 75 µM
NCI-H460 lung
  TGI: 41.9 µM
HT29 colon
  TGI: 75.2 µM
SW-620 colon
  TGI: > 100 µM
OVCAR-8 ovarian
  TGI: > 100 µM
TK-10 renal
  TGI: > 100 µM
ACHN renal
  TGI: 76.5 µM
HCT-15 colon
  TGI: 79.7 µM

## Cc1cn(Cc2cnnn2CC2OC(n3cc(C)c(=O)[nH]c3=O)CC2O)c(=O)[nH]c1=O (configuration not stated)
MDA-MB-231 breast
  TGI: > 100 µM
MALME-3M melanoma
  TGI: > 100 µM
SW-620 colon
  TGI: > 100 µM
OVCAR-8 ovarian
  TGI: > 100 µM
TK-10 renal
  TGI: > 100 µM
ACHN renal
  TGI: > 100 µM
HCT-15 colon
  TGI: > 100 µM

## c1cn(C23C4C5C6C4C2C6C53)cn1 (configuration not stated)
SR leukemia
  TGI: > 100 µM
MDA-MB-231 breast
  TGI: > 100 µM
NCI-H460 lung
  TGI: > 100 µM
HT29 colon
  TGI: > 100 µM
SW-620 colon
  TGI: > 100 µM
OVCAR-8 ovarian
  TGI: > 100 µM
TK-10 renal
  TGI: > 100 µM
ACHN renal
  TGI: > 100 µM
HCT-15 colon
  TGI: > 100 µM

## CCOC(=O)c1nc2ccc(C(F)(F)F)cc2nc1Oc1cc(OC)cc(OC)c1
MDA-MB-231 breast
  TGI: > 100 µM
MALME-3M melanoma
  TGI: > 100 µM
NCI-H460 lung
  TGI: > 100 µM
HT29 colon
  TGI: > 100 µM
SW-620 colon
  TGI: > 100 µM
OVCAR-8 ovarian
  TGI: > 100 µM
TK-10 renal
  TGI: > 100 µM
ACHN renal
  TGI: > 100 µM
HCT-15 colon
  TGI: > 100 µM

## COc1ccc(-c2c(C#N)c(S)n(NS(=O)(=O)c3ccc(C)cc3)c(=O)c2C#N)cc1
MDA-MB-231 breast
  TGI: 42.7 µM
MALME-3M melanoma
  TGI: > 100 µM
NCI-H460 lung
  TGI: > 100 µM
HT29 colon
  TGI: > 100 µM
SW-620 colon
  TGI: 34.7 µM
OVCAR-8 ovarian
  TGI: 74.8 µM
TK-10 renal
  TGI: > 100 µM
ACHN renal
  TGI: 41.3 µM
HCT-15 colon
  TGI: 32.4 µM

## COc1ccc(C(=O)/C=C/c2c(Cl)c3c(c(OC)c2Cl)OCC(=O)N3)cc1
SR leukemia
  GI50: 1.15 µM
  TGI: 7.45 µM
MALME-3M melanoma
  GI50: 2.28 µM
  TGI: 4.99 µM
SW-620 colon
  GI50: 1.81 µM
  TGI: 3.66 µM
OVCAR-8 ovarian
  GI50: 2.85 µM
  TGI: 16.3 µM
TK-10 renal
  GI50: 2.55 µM
  TGI: 6.09 µM
ACHN renal
  GI50: 1.79 µM
  TGI: 3.64 µM
HCT-15 colon
  GI50: 2.01 µM
  TGI: 6.14 µM

## CN(C)c1nc2oc(-c3ccccc3)c(-c3ccccc3)c2c2nnnn12
SR leukemia
  TGI: > 100 µM
MDA-MB-231 breast
  TGI: > 100 µM
HT29 colon
  TGI: > 100 µM
SW-620 colon
  TGI: > 100 µM
OVCAR-8 ovarian
  TGI: > 100 µM
TK-10 renal
  TGI: > 100 µM
ACHN renal
  TGI: > 100 µM
HCT-15 colon
  TGI: > 100 µM

## O=c1cc(N2CCN(c3cc(=O)n4ccccc4n3)CC2)oc2ccccc12
MDA-MB-231 breast
  TGI: > 100 µM
MALME-3M melanoma
  TGI: > 100 µM
NCI-H460 lung
  TGI: > 100 µM
HT29 colon
  TGI: > 100 µM
SW-620 colon
  TGI: > 100 µM
OVCAR-8 ovarian
  TGI: 96.9 µM
TK-10 renal
  TGI: > 100 µM
ACHN renal
  TGI: > 100 µM
HCT-15 colon
  TGI: > 100 µM

## CN1CCN(CCCBr)CC1
MDA-MB-231 breast
  TGI: > 100 µM
MALME-3M melanoma
  TGI: > 100 µM
NCI-H460 lung
  TGI: > 100 µM
HT29 colon
  TGI: > 100 µM
SW-620 colon
  TGI: > 100 µM
OVCAR-8 ovarian
  TGI: > 100 µM
TK-10 renal
  TGI: > 100 µM
ACHN renal
  TGI: > 100 µM
HCT-15 colon
  TGI: > 100 µM

## N#Cc1ccccc1-c1nc2c3c(c(N)ccc3n1)C(=O)c1ccccc1-2
MDA-MB-231 breast
  TGI: > 100 µM
MALME-3M melanoma
  TGI: > 100 µM
NCI-H460 lung
  TGI: > 100 µM
HT29 colon
  TGI: > 100 µM
SW-620 colon
  TGI: > 100 µM
OVCAR-8 ovarian
  TGI: > 100 µM
TK-10 renal
  TGI: > 100 µM
ACHN renal
  TGI: > 100 µM
HCT-15 colon
  TGI: > 100 µM

## COc1ccc(C)cc1Nc1nnc(-c2ccccc2N)s1
SR leukemia
  TGI: 46.7 µM
MALME-3M melanoma
  TGI: > 100 µM
NCI-H460 lung
  TGI: > 100 µM
HT29 colon
  TGI: > 100 µM
SW-620 colon
  TGI: > 100 µM
OVCAR-8 ovarian
  TGI: > 100 µM
ACHN renal
  TGI: > 100 µM
HCT-15 colon
  TGI: > 100 µM

## C(CCCCc1nnc(N2CCCCC2)o1)CCCc1nnc(N2CCCCC2)o1
MDA-MB-231 breast
  TGI: > 100 µM
MALME-3M melanoma
  TGI: > 100 µM
NCI-H460 lung
  TGI: > 100 µM
HT29 colon
  TGI: > 100 µM
SW-620 colon
  TGI: > 100 µM
OVCAR-8 ovarian
  TGI: > 100 µM
TK-10 renal
  TGI: > 100 µM
ACHN renal
  TGI: > 100 µM
HCT-15 colon
  TGI: > 100 µM
